The values below come from ChEMBL document CHEMBL1141417, “2,6,8-trisubstituted 1-deazapurines as adenosine receptor antagonists” (J Med Chem, 2007).

The target in experiment [1] is Adenosine receptors; A1 & A2a (Homo sapiens) (UniProt P30542+P29274). Kind of experiment: Selectivity for human adenosine A1 receptor over human adenosine A2A receptor. In kind it is protein assay.
Experiment [2] has as its target T1, Adenosine receptor A1 (Homo sapiens, UniProt P30542).
T1 sequence (P30542 whole entry): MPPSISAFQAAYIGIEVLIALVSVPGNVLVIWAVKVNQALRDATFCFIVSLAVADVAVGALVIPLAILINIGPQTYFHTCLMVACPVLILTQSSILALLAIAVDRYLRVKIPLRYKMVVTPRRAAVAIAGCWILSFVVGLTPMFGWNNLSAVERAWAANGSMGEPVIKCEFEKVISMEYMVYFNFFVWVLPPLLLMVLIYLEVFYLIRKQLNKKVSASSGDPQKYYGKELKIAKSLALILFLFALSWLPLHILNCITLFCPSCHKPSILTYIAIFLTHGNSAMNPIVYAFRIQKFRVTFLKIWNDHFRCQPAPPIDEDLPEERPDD
The experiment in a line: Displacement of [3H]DPCPX from human adenosine A1 receptor expressed in CHO cells. In kind it is cell-based. Background: Loss of bound radioactivity is the signal in a displacement assay; it reports binding, not function.

Experiment [3] concerns the target T2, Adenosine receptor A2a (Homo sapiens, UniProt P29274). The experiment in a line: Displacement of [3H]ZM-241385 from human adenosine A2A receptor expressed in CHO cells. The experiment is classed as cell-based.
The next experiment addresses T3, Adenosine receptor A3 (Homo sapiens, UniProt P0DMS8).
T3 sequence (P0DMS8 whole entry): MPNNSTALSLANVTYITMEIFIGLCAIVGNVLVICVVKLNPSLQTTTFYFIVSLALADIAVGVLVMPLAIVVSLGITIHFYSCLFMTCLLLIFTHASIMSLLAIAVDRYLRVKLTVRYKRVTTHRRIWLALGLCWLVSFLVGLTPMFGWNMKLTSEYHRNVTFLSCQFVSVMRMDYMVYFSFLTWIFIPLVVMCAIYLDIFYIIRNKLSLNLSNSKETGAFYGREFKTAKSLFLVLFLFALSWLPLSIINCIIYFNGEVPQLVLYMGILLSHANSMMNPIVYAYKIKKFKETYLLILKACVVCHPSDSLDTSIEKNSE
The experiment in a line: Displacement of [125I]AB-MECA from human adenosine A3 receptor expressed in CHO cells. The experiment is classed as cell-based.

Experiment [4] has as its target T4, Adenosine receptor A1 (Homo sapiens) (UniProt P30542).
T4 sequence (whole entry): T1 sequence (P30542 whole entry)
The experiment in a line: Activity at human adenosine A1 receptor expressed in CHO cells assessed as effect on forskolin-stimulated cAMP production at 100 nM. The experiment is classed as functional, cell-based. On the technique in general: cAMP levels reflect the balance of adenylyl cyclase and phosphodiesterase activity.

For experiment [5], the target named is T4, Adenosine receptor A1 (Homo sapiens). The experiment in a line: Activity at human adenosine A1 receptor in CHO cells assessed as effect on CPA induced inhibition of forskolin-stimulated cAMP production at 1 uM. The experiment is classed as functional, cell-based. As to conditions: filed as antagonist.
Experiment [6] concerns the target Adenosine receptors; A1 & A3 (Homo sapiens) (UniProt P30542+P0DMS8). Kind of experiment: Selectivity for human adenosine A1 receptor over human adenosine A3 receptor. The experiment is classed as protein assay.
The target of experiment [7] is T5, Adenosine receptor A3 (Homo sapiens) (UniProt P0DMS8).
T5 sequence (whole entry): T3 sequence (P0DMS8 whole entry)
Kind of experiment: Displacement of [125I]AB-MECA from human adenosine A3 receptor expressed in CHO cells at 1 uM. In kind it is cell-based.

Experiment [8] has as its target T4, Adenosine receptor A1 (Homo sapiens). Kind of experiment: Displacement of [3H]DPCPX from human adenosine A1 receptor expressed in CHO cells at 1 uM. In kind it is cell-based.
Experiment [9] has as its target T2, Adenosine receptor A2a. Kind of experiment: Displacement of [3H]ZM241385 from human adenosine A2A receptor expressed in CHO cells at 1 uM. In kind it is cell-based.
Experiment [10] concerns the target T1, Adenosine receptor A1. The experiment in a line: Activity at human adenosine A1 receptor in CHO cells assessed as effect on CPA induced inhibition of forskolin-stimulated cAMP production. In kind it is functional, cell-based.
In experiment [11] the target is T4, Adenosine receptor A1 (Homo sapiens). The experiment in a line: Activity at human adenosine A1 receptor expressed in CHO cells assessed as effect on forskolin-stimulated cAMP production at 100 uM. In kind it is functional, cell-based. As to conditions: filed as inverse agonist.

Bounds are passed on as bounds.

T2 sequence (P29274 whole entry): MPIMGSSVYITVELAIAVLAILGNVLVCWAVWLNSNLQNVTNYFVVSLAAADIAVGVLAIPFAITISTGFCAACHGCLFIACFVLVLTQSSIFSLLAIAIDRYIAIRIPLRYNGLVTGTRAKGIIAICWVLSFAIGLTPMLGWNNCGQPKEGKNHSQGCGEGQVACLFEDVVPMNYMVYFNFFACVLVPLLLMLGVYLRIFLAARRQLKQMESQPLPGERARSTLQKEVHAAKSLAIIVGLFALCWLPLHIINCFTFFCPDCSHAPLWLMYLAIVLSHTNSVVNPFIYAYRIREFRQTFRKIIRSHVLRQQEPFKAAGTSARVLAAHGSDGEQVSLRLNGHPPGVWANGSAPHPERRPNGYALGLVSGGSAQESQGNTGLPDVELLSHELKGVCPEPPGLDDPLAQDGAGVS
Sequence of Adenosine receptors; A1 & A2a (Homo sapiens) (P29274 whole entry, looked up, one chain of several): as the sequence (P29274 whole entry) above

On to `c1ccc(-c2cc(-c3ccccc3)c3nc[nH]c3n2)cc1`, for which, in experiment [1], the Ratio Ki worked out at 33. The Ki at Adenosine receptor A1 [2] was 1.2 nM (antagonist); at Adenosine receptor A2a [3], 39 nM (antagonist); at Adenosine receptor A3, 180 nM (antagonist).
For the molecule `CC(C)Cc1nc2c(-c3ccccc3)cc(-c3ccccc3)nc2[nH]1`, the Ratio Ki in experiment [1] was > 300; in [6] it was 45. Further, the figures for the Activity entry in experiment [4] (filed as inverse agonist) and in [5] were “Inverse agonist” and “Antagonist”, respectively. Further, the values for the Ki on Adenosine receptor A1 [2], on Adenosine receptor A2a [3] and on Adenosine receptor A3 were 0.55 nM (antagonist), 189 nM (antagonist) and 25 nM (antagonist), respectively.
`c1cnc2[nH]c(C3CCCC3)nc2c1`: the inhibition in experiment [7] is 0%; in [8], 6%; on Adenosine receptor A2a [9], 3%.
With `c1ccc(-c2cc(-c3ccccc3)c3nc(C4CCCCC4)[nH]c3n2)cc1`, the Ratio Ki in experiment [1] amounted to 215; in experiment [6] it was 718. The Activity result is “Inverse agonist” in [4] (filed as inverse agonist) and “Antagonist” in experiment [5]. For the same molecule, at Adenosine receptor A1 [10], the IC50 is 1700 nM (antagonist). In addition, the Ki at Adenosine receptor A2a [3] is reported as 194 nM (antagonist); at Adenosine receptor A3 it was 637 nM (antagonist).
Take `O=c1[nH]c2nc(-c3ccccc3)cc(-c3ccccc3)c2[nH]1`: the Ki on Adenosine receptor A1 [2] is listed as 8.6 nM (antagonist); at Adenosine receptor A2a [3] it was 192 nM (antagonist); at Adenosine receptor A3, 262 nM (antagonist).
The matching figures for `CCc1nc2c(-c3ccccc3)cc(-c3ccccc3)nc2[nH]1`: 2.4 nM (antagonist), 177 nM (antagonist) and 8.5 nM (antagonist).
In the case of `Cn1cnc2c(NC3CCCC3)ncnc21`, the Activity entry in [11] was “Inverse agonist”.
Regarding `OC[C@H]1O[C@@H](n2cnc3c(NC4CCCC4)ncnc32)[C@H](O)[C@@H]1O`, in [4] (filed as agonist), the Activity entry was “Agonist”.
`c1ccc(Cn2cnc3c(-c4ccccc4)cc(-c4ccccc4)nc32)cc1`: the inhibition is 15% in experiment [7], 38% in experiment [8] and 2% on Adenosine receptor A2a [9].
Take `c1ccc(-c2cc(-c3ccccc3)c3nc(C4CCCC4)[nH]c3n2)cc1`: the Ratio Ki in experiment [1] is > 1600. In addition, the Activity entry in experiment [4] (filed as inverse agonist) is “Inverse agonist”; in experiment [5] it was “Antagonist”. In addition, the inhibition at Adenosine receptor A2a [9] turned out to be 49%. In addition, the Ki at Adenosine receptor A3 was 6.9 nM (antagonist).
For the molecule `CCCc1nc2c(-c3ccccc3)cc(-c3ccccc3)nc2[nH]1`, the Ki on Adenosine receptor A1 [2] is on record as 2.5 nM (antagonist); on Adenosine receptor A2a [3], 114 nM (antagonist); on Adenosine receptor A3 it was 69 nM (antagonist).
Turning to `CC(C)c1nc2c(-c3ccccc3)cc(-c3ccccc3)nc2[nH]1`, in [1], the Ratio Ki is 377. Further, the figures for the Activity result in experiment [4] (filed as inverse agonist) and in [5] were “Inverse agonist” and “Antagonist”, respectively. Besides, the values for the Ki at Adenosine receptor A2a [3] and at Adenosine receptor A3 were 230 nM (antagonist) and 7.3 nM (antagonist), respectively.
As for `CC(C)(C)c1nc2c(-c3ccccc3)cc(-c3ccccc3)nc2[nH]1`, the Ki was 5.5 nM (antagonist) at Adenosine receptor A1 [2], 1050 nM at Adenosine receptor A2a [3] and 115 nM (antagonist) on Adenosine receptor A3.
As to `CCC(CC)c1nc2c(-c3ccccc3)cc(-c3ccccc3)nc2[nH]1`, the Activity entry is “Inverse agonist” in experiment [4] (filed as inverse agonist) and “Antagonist” in experiment [5]. For the same molecule, in [6], the Ratio Ki is 199. Besides, the Ki is given as 0.87 nM (antagonist) on Adenosine receptor A1 [2], 247 nM (antagonist) at Adenosine receptor A2a [3] and 171 nM (antagonist) at Adenosine receptor A3.
On to `CCc1nc2c(C)cc(C)nc2[nH]1`, for which the inhibition in experiment [7] was determined as 49%; on Adenosine receptor A2a [9] it was 8%. For the same molecule, on Adenosine receptor A1 [2], the Ki was 101 nM (antagonist).
With `Cc1nc2c(-c3ccccc3)cc(-c3ccccc3)nc2[nH]1`, the Ki is reported as 375 nM (antagonist) on Adenosine receptor A2a [3] and 61 nM (antagonist) at Adenosine receptor A3.

Usually Ki stands for a measure of affinity in units of concentration, obtained from inhibition or displacement. One may read the inhibition as the relative decrease from the control value, in per cent. What is called IC50 is the concentration that inhibits the measured activity by half.
